Patent US20120288482A1, “THERAPEUTIC AGENT (Y-39983) FOR CORNEAL ENDOTHELIAL DYSFUNCTION” (priority 2009, published 2012)

How the values were obtained:
[1] = tested on: corneal endothelial wound; assay: Rabbit corneal endothelial wound model, topical instillation (Example 1); format: in vivo; conditions: for area of the unrepaired wound site (corneal endothelium wound area): 6 times a day, 46 hours after wound creation
Protocol: In this Example, 0.95 mM (0.03 w/v%) compound (I) instillation and 0.32 mM (0.01 w/v%) compound (I) instillation obtained by diluting the above instillation with the above-mentioned vehicle were used.
As a positive control substances, Y-27632 dihydrochloride (Wako Pure Chemical Industries, Co., Ltd., Cat. #253-00513) and fasudil hydrochloride hydrate injection (Eril (registered trade mark) drip intravenous injection, Asahi Kasei Pharma) were purchased, and Y-27632 and Fasudil were each adjusted to 10 mM with phosphate-buffered saline (PBS, Invitrogen, Cat. #14190). In addition, PBS was used as a negative control substance.
Male Japanese white rabbits (body weight 2.5-3.0 kg, 21 rabbits) were purchased from Biotek Co., Ltd. and used. They are kept in individual cages at 23±3° C. temperature, at 55±10% humidity and 12 hours artificial light cycle (lighting on; 8:00 a.m., lighting off; 8:00 p.m.). One hundred grams of solid food (Labo R stock; Nosan Corp.) are provided daily to each animal. Water is supplied by automatic watering apparatus.
3. Excision of Nictitating Membrane of Animal Before starting the test, the nictitating membrane of both eyes of the animal was excised. To be specific, each animal was set in a positioner, and the ocular surface was topically anesthetized by instillation of a topical anesthesia (Benoxil instillation 0.4%, Santen Pharmaceutical Co., Ltd.). Then, the root position of the nictitating membrane was pressed with a clamp for 30 sec, and compressing mark was cut with scissors. After excision of the nictitating membrane, the antibiotic ointment (tarivid eye ointment, Santen Pharmaceutical Co., Ltd.) was instilled to prevent infection. After 4 days from the excision of the nictitating membrane, animals confirmed to have no abnormality in the external eye including the excised site were used.
The corneal thickness of the right eye of each animal was measured with an ultrasonic pachymeter (manufactured by DGH Technologies Inc., DGH-500), and the animals were divided into 4 groups such that the corneal thickness of each group was equal. The animals used for each group were as follows. • 10 mM Y-27632 group=5 eyes • 0.32 mM compound (I) group=5 eyes • 0.95 mM compound (I) group=6 eyes • 10 mM Fasudil group=5 eyes • PBS group=21 eyes (left eye)
The animals were sytemically anesthetized by intramuscular administration of Ketalar muscular injection ([…], DAIICHI SANKYO COMPANY, LIMITED., 0.6 ml) and Celactal 2% Injection (Bayer, Ltd., 0.25 ml). Then, Benoxil instillation 0.4% (Santen Pharmaceutical Co., Ltd., one drop) was instilled and the eye was opened using a lid speculum.
A 7-mm diameter stainless dowel that had been cooled in liquid nitrogen was placed on the central cornea of both eyes of 21 animals for 15 sec. to produce an ice ball in the anterior chamber and dissociate corneal endothelial cells, whereby a corneal endothelial wound was produced.
For topical instillation, after wound creation, compound (I) instillation, Y-27632 instillation or Fasudil instillation was instilled to the right eye, and PBS was instilled to the left eye 6 times a day (4 times on the day of wound production) at 50 μL per instillation. Administration interval in one day was 2 hours. […]

[2] = tested on: cultured corneal endothelial cells; conditions: cited from earlier work
[3] = tested on: corneal endothelium; conditions: instillation of 10 mM; cited from earlier work
[4] = tested on: cultured monkey corneal endothelial cells; conditions: in vitro; cited from earlier work
[5] = tested on: corneal endothelial loss model; assay: Rabbit corneal endothelial loss model, high concentration instillation (Example 2); format: in vivo; conditions: 0.05 w/v % (1.58 mM) instillation, 6 times a day, 2 days
[6] = tested on: rabbit corneal endothelial cells; assay: Wound healing model of cultured corneal endothelial cells (Example 5); format: cell-based
Protocol: In this Example, rabbit corneal endothelial cells prepared in the same manner as in Example 4 were used. In this Example, moreover, test substances and control substance prepared in the same manner as in Example 4 were used. Collected rabbit corneal endothelial cells were diluted with a culture medium (about 4 ml, DMEM (Invitrogen, Cat. #12320-032), 10% FBS, 2 ng/mL bFGF (Invitrogen, Cat. #13256-029) and 1% penicillin/streptomycin (Invitrogen, Cat. #15070-063)), and seeded at a division ratio of 1:4 by 2 ml per well in a 6 well plate (Corning Incorporated, Cat. #3516). The cells were incubated to confluent under conditions of 37° C. and 5% CO2. Wound was created in the confluent cells using 1000 μL chip (Molecular BioProducts, 2279). Then, each medicament was added to the culture medium to a final concentration of 0.09, 0.32, 0.95, 3.16 and 9.47 μM compound (I), 10 μM Y-27632 and 10 μM Fasudil. As a control, DMSO was added to a final concentration of 0.04%. At 6 hours, 12 hours and 24 hours after addition of each medicament, the width of the wound was photographed over time, and the width of the wound was evaluated by image analysis.

[7] = tested on: rabbit corneal endothelial cells; assay: Adhesion of cultured corneal endothelial cells to culture plate (Example 6); format: cell-based; conditions: 3 hours after seeding
Protocol: In this Example, rabbit corneal endothelial cells prepared in the same manner as in Example 4 were used. In this Example, moreover, test substances and control substance prepared in the same manner as in Example 4 were used. The collected rabbit corneal endothelial cells were diluted, and a culture medium (about 4 ml, DMEM (Invitrogen, Cat. #12320-032), 10% FBS, 2 ng/mL bFGF (Invitrogen, Cat. #13256-029) and 1% penicillin/streptomycin (Invitrogen, Cat. #15070-063)) was added to the cells. Then, each medicament was added to the culture medium to final concentrations of 0.09, 0.32, 0.95, 3.16 and 9.47 μM compound (I), 10 μM Y-27632 and 10 μM Fasudil. As a control, DMSO was added to a final concentration of 0.04%. These cells were seeded in a 96 well plate (Corning Incorporated, Cat. #3595) at 1000 cells/well. After 3 hours from the seeding, suspended cells were removed, and adhered cells were counted by CellTiter-Glo (registered trade mark) Luminescent Cell Viability Assay (promega Cat. #G7572).

Compound	area of the unrepaired wound site (corneal endothelium wound area) ([1]; 10 mM instillation)	cell adhesion [2]	wound healing of corneal endothelium [3]	apoptosis [4]	cell adhesion [4]	cell cycle [4]	area of the unrepaired wound site (corneal endothelium wound area) ([1]; 0.32 mM instillation)	area of the unrepaired wound site (corneal endothelium wound area) ([1]; 0.95 mM instillation)	wound area compared to the PBS instillation group ([1]; 0.95 mM instillation, Dunnett's test)	effect in rabbit corneal endothelial loss model [5]	wound healing effect ([6]; 0.95 μM, student's t-test)	wound width ([6]; 9.47 μM, versus control)	wound width ([6]; 0.09-3.16 μM, 24 hours after addition, Dunnett's test)	concentration showing a wound healing effect ([6]; in vitro wound healing model, Example 5)	number of adherent cells ([7]; 0.32 μM)	concentration at which the number of adherent cells reached plateau [7]	number of adherent cells ([7]; all addition groups (0.09-9.47 μM))
C[C@@H](N)[C@H]1CC[C@H](C(=O)Nc2ccncc2)CC1 [Y-27632, reference compound]	1.1 mm^2	promoting cell adhesion	promotes wound healing of corneal endothelium	suppression of apoptosis	promotion of cell adhesion	promotion of cell cycle											
C[C@@H](N)c1ccc(C(=O)Nc2ccnc3[nH]ccc23)cc1.Cl [compound (I), (R)-(+)-N-(1H-pyrrolo[2,3-b]pyridin-4-yl)-4-(1-aminoethyl)benzamide monohydrochloride]							1.1 mm^2	0.4 mm^2	statistically significant decrease in the wound area	effect can be confirmed	showed a wound healing effect from the early stages of the addition	no statistically significant difference from the control group	significantly decreased	0.09 to 3.16 µM	almost the same level as 10 μM Y-27632	not less than 0.32 μM	increased the number of adherent cells
